Test: xn = mol fraction of the nth substance listed
Conditions: 101 kPa, Liquid; for speed of sound: Sing-around technique in a fixed-path interferometer; for mass density: Vibrating tube method

C1CCOCC1 [tetrahydropyran] + c1ccccc1
Conditions	mass density, 298.15 K [kg/m3]	mass density, 303.15 K [kg/m3]	speed of sound, 298.15 K [m/s]	speed of sound, 303.15 K [m/s]
x1 = 0.0789	874.6	869.25	1298.9	1274
x1 = 0.1324	875.21	869.87	1298.2	1272.5
x1 = 0.1784	875.68	870.35	1297.5	1271.2
x1 = 0.2239	876.1	870.78	1296.6	1269.8
x1 = 0.2876	876.63	871.32	1295.2	1267.9
x1 = 0.3276	876.92	871.63	1294.2	1266.7
x1 = 0.3769	877.26	871.97	1292.9	1265.2
x1 = 0.4285	877.58	872.3	1291.4	1263.6
x1 = 0.4794	877.87	872.59	1289.8	1262
x1 = 0.5598	878.27	872.99	1287.2	1259.6
x1 = 0.6024	878.46	873.17	1285.8	1258.3
x1 = 0.6534	878.66	873.37	1284	1256.9
x1 = 0.7006	878.82	873.53	1282.3	1255.5
x1 = 0.7432	878.95	873.65	1280.7	1254.2
x1 = 0.7943	879.07	873.77	1278.8	1252.8
x1 = 0.8213	879.12	873.83	1277.7	1252
x1 = 0.8763	879.18	873.92	1275.4	1250.4
x1 = 0.9148	879.2	873.96	1273.7	1249.3

C1CCOCC1 [tetrahydropyran] + Cc1ccccc1
Conditions	mass density, 298.15 K [kg/m3]	mass density, 303.15 K [kg/m3]	speed of sound, 298.15 K [m/s]	speed of sound, 303.15 K [m/s]
x1 = 0.0834	863.93	859.19	1303.2	1281.1
x1 = 0.1245	864.77	859.99	1302.3	1280
x1 = 0.1765	865.79	860.99	1301.2	1278.7
x1 = 0.2387	866.99	862.15	1299.7	1277.1
x1 = 0.3017	868.16	863.3	1298.1	1275.3
x1 = 0.3541	869.11	864.23	1296.6	1273.8
x1 = 0.4098	870.1	865.2	1295	1272.2
x1 = 0.4467	870.74	865.83	1293.9	1271
x1 = 0.4915	871.51	866.59	1292.5	1269.5
x1 = 0.5487	872.47	867.53	1290.6	1267.5
x1 = 0.6008	873.33	868.36	1288.8	1265.6
x1 = 0.6472	874.08	869.09	1287.1	1263.7
x1 = 0.6954	874.84	869.83	1285.2	1261.8
x1 = 0.7321	875.41	870.38	1283.7	1260.2
x1 = 0.7832	876.18	871.13	1281.5	1257.9
x1 = 0.8241	876.78	871.71	1279.6	1255.9
x1 = 0.8937	877.76	872.65	1276.1	1252.5
x1 = 0.9205	878.12	873	1274.6	1251.1

Source: the NIST ThermoML archive (doi:10.1021/je5004719)
